Data on two compounds can be found in patent publication US20220000106A1, “HERBICIDAL COMPOSITIONS AND RELATED METHODS” (BELCHIM Crop Protection USA LLC, priority 2020, published 2022).

This experiment has as its system various established weeds including Carolina False Dandelion, Hop Clover, White Clover, Annual Sedge, and Smooth Crabgrass. The experiment can be described thus: Field study of post-emergence weed control (overall percent weed control of combined weed species) in established Kentucky Tall Fescue. Format: in vivo. The conditions noted are these: for efficacy of all weeds: eight days after treatment. As for the experimental part: Field studies were conducted on a mixed stand of established Kentucky Tall Fescue containing various established weeds including but not limited to Carolina False Dandelion, Hop Clover, White Clover, Annual Sedge, and Smooth Crabgrass in Selma, N.C. The trial location was mowed weekly at a mowing height of three inches. The distribution of weeds was uniform throughout the study.
Individual treatment plots were applied on a 1×3 meter squared plot area. The experimental design was a randomized complete block with three replications. The applications were made with a carbon dioxide backpack sprayer equipped with 11003 nozzles with a spray pressure of 40 psi calibrated to deliver approximately 40 gallons per acre spray volume. All applications were applied on a single day. The wind speed was less than 10 mph at time of application.
Data were collected at 2, 4, 8, 13, 23 and 30 days after application of treatments, respectively. Data were collected as an estimate of overall percent weed control (efficacy) of combined weed species taking into consideration necrosis, chlorosis, and stunting of each weed species. The data were analyzed in ARM using the ANOVA and preforming the Duncan's New MRT test at P=0.05 (indicated by “a,” “b,” “c,”, etc.).
Glufosinate used in this trial was Surmise (2.34 lb/gal.) marketed by Albaugh LLC. Pelargonic Acid used in this trial was Beloukha Garden Herbicide (4.21 lb/gal.) marketed by Belchim Crop Protection USA.
The total percent weed control was calculated by comparing the individual treated plots and assessing individual weeds.

Turning to `CP(=O)(O)CCC(N)C(=O)O` (stereo not shown) [Glufosinate, 2-amino-4-[hydroxy(methyl)phosphoryl]butanoic acid], the “Percent Control” value was 0.0b % (0.5 fluid oz/gal, 2 days after treatment); 20.0c % (0.5 fluid oz/gal, 4 days after treatment); 85.0ab % (0.5 fluid oz/gal, 8 days after treatment); 90.0b % (0.5 fluid oz/gal, 13 days after treatment); 85.2b % (0.5 fluid oz/gal, 23 days after treatment); 83.6b % (0.5 fluid oz/gal, 30 days after treatment). For the same compound, the “Percent Control” value runs as follows: (1.0 fluid oz/gal, 2 days after treatment) 0.0b %; (1.0 fluid oz/gal, 4 days after treatment) 15.0cd %; (1.0 fluid oz/gal, 8 days after treatment) 91.0a %; (1.0 fluid oz/gal, 13 days after treatment) 90.7b %; (1.0 fluid oz/gal, 23 days after treatment) 90.4b %; (1.0 fluid oz/gal, 30 days after treatment) 95.0a %. For the same compound, the “Percent Control” value (2.0 fluid oz/gal, 2 days after treatment) was 0.0b %; the “Percent Control” value (2.0 fluid oz/gal, 4 days after treatment) is on record as 15.0cd %; the “Percent Control” value (2.0 fluid oz/gal, 8 days after treatment) stood at 94.3a %; the “Percent Control” value (2.0 fluid oz/gal, 13 days after treatment) stood at 98.0a %; the “Percent Control” value (2.0 fluid oz/gal, 23 days after treatment) was 99.1a %; the “Percent Control” value (2.0 fluid oz/gal, 30 days after treatment) was 97.1a %. Also, where the note is “all glufosinate treatments at all dose rates”, the “efficacy of all weeds” value was in the range of 85 to 94%. Moreover, the “control of all weeds (efficacy)” value (glufosinate alone, all dose rates, 23 days after treatment) was 85 to 99%.
Regarding `CCCCCCCCC(=O)O` [Pelargonic Acid, nonanoic acid], the “Percent Control” value is, setting by setting: (3.2 fluid oz/gal, 2 days after treatment) 6.7b %; (3.2 fluid oz/gal, 4 days after treatment) 20.0c %; (3.2 fluid oz/gal, 8 days after treatment) 40.0c %; (3.2 fluid oz/gal, 13 days after treatment) 22.2d %; (3.2 fluid oz/gal, 23 days after treatment) 20.0d %; (3.2 fluid oz/gal, 30 days after treatment) 20.0c %. Besides, the “Percent Control” value runs as follows: (6.4 fluid oz/gal, 2 days after treatment) 40.0a %; (6.4 fluid oz/gal, 2 days after treatment, listed as pelargonic acid) 40%; (6.4 fluid oz/gal, 4 days after treatment) 50.0b %; (6.4 fluid oz/gal, 8 days after treatment) 73.3b %; (6.4 fluid oz/gal, 13 days after treatment) 66.7c %; (6.4 fluid oz/gal, 23 days after treatment) 40.0c %. Further, under “6.4 fluid oz/gal, 30 days after treatment”, the “Percent Control” value is given as 23.2c %. The “efficacy of all weeds” value (pelargonic acid alone, both dose rates) is given as 40% to 73.
